Measured values from patent publication US20200181117A1, “SUBSTITUTED 3-HETEROARYLOXY-1H-PYRAZOLES AND SALTS THEREOF AND THEIR USE AS HERBICIDAL ACTIVE SUBSTANCES” (BAYER CROPSCIENCE AKTIENGESELLSCHAFT, priority 2017, published 2020).

Tests used:
Format in all cases: in vivo
[1] = test system: Viola tricolor; assay: Pre-emergence herbicidal action; details: 1280 g/ha, scored visually after about 3 weeks vs untreated controls
How it was run: (§1)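 Percent activity was assessed by eye roughly 3 weeks post-treatment, with 0% equal to untreated plants and 100% equal to dead plants. Before emergence, seeded pots received a soil-surface spray at 1280 g/ha (600 l/ha water, 0.5% additive).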

[2] = test system: Veronica persica; assay: Pre-emergence herbicidal action; details: 1280 g/ha, scored visually after about 3 weeks vs untreated controls
How it was run: as §1

[3] = test system: Abutilon theophrasti; assay: Pre-emergence herbicidal action; details: 1280 g/ha, scored visually after about 3 weeks vs untreated controls
How it was run: as §1

[4] = test system: Amaranthus retroflexus; assay: Pre-emergence herbicidal action; details: 1280 g/ha, scored visually after about 3 weeks vs untreated controls
How it was run: as §1

[5] = test system: Polygonum convolvulus; assay: Pre-emergence herbicidal action; details: 1280 g/ha, scored visually after about 3 weeks vs untreated controls
How it was run: as §1

[6] = test system: Echinochloa crus-galli; assay: Pre-emergence herbicidal action; details: 1280 g/ha, scored visually after about 3 weeks vs untreated controls
How it was run: as §1

[7] = test system: Setaria viridis; assay: Pre-emergence herbicidal action; details: 1280 g/ha, scored visually after about 3 weeks vs untreated controls
How it was run: as §1

[8] = test system: Viola tricolor; assay: Post-emergence herbicidal action; details: 1280 g/ha, rated visually after about 3 weeks vs untreated controls
How it was run: (§2)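 Visual rating against untreated plants, about 3 weeks post-treatment, on a 0-100% scale where 100% means plant death. Treatment: 1280 g/ha of WP/EC preparations with 0.5% additive in 600 l/ha water, sprayed on one-leaf-stage weeds grown in greenhouse sandy loam.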

[9] = test system: Stellaria media; assay: Post-emergence herbicidal action; details: 1280 g/ha, rated visually after about 3 weeks vs untreated controls
How it was run: as §2

[10] = test system: Veronica persica; assay: Post-emergence herbicidal action; details: 1280 g/ha, rated visually after about 3 weeks vs untreated controls
How it was run: as §2

[11] = test system: Alopecurus myosuroides; assay: Post-emergence herbicidal action; details: 1280 g/ha, rated visually after about 3 weeks vs untreated controls
How it was run: as §2

[12] = test system: Abutilon theophrasti; assay: Post-emergence herbicidal action; details: 1280 g/ha, rated visually after about 3 weeks vs untreated controls
How it was run: as §2

[13] = test system: Matricaria inodora; assay: Post-emergence herbicidal action; details: 1280 g/ha, rated visually after about 3 weeks vs untreated controls
How it was run: as §2

[14] = test system: Amaranthus retroflexus; assay: Post-emergence herbicidal action; details: 1280 g/ha, rated visually after about 3 weeks vs untreated controls
How it was run: as §2

[15] = test system: Polygonum convolvulus; assay: Post-emergence herbicidal action; details: 1280 g/ha, rated visually after about 3 weeks vs untreated controls
How it was run: as §2

[16] = test system: Echinochloa crus-galli; assay: Post-emergence herbicidal action; details: 1280 g/ha, rated visually after about 3 weeks vs untreated controls
How it was run: as §2

[17] = test system: Setaria viridis; assay: Post-emergence herbicidal action; details: 1280 g/ha, rated visually after about 3 weeks vs untreated controls
How it was run: as §2

[18] = test system: Stellaria media; assay: Pre-emergence herbicidal action; details: 1280 g/ha, scored visually after about 3 weeks vs untreated controls
How it was run: as §1

[19] = test system: Matricaria inodora; assay: Pre-emergence herbicidal action; details: 1280 g/ha, scored visually after about 3 weeks vs untreated controls
How it was run: as §1

[20] = test system: Pharbitis purpurea; assay: Post-emergence herbicidal action; details: 1280 g/ha, rated visually after about 3 weeks vs untreated controls
How it was run: as §2

[21] = test system: Lolium rigidum; assay: Pre-emergence herbicidal action; details: 1280 g/ha, scored visually after about 3 weeks vs untreated controls
How it was run: as §1

[22] = test system: Avena fatua; assay: Pre-emergence herbicidal action; details: 1280 g/ha, scored visually after about 3 weeks vs untreated controls
How it was run: as §1

[23] = test system: Alopecurus myosuroides; assay: Pre-emergence herbicidal action; details: 1280 g/ha, scored visually after about 3 weeks vs untreated controls
How it was run: as §1

[24] = test system: Hordeum murinum; assay: Pre-emergence herbicidal action; details: 1280 g/ha, scored visually after about 3 weeks vs untreated controls
How it was run: as §1

[25] = test system: Pharbitis purpurea; assay: Pre-emergence herbicidal action; details: 1280 g/ha, scored visually after about 3 weeks vs untreated controls
How it was run: as §1

[26] = test system: Lolium rigidum; assay: Post-emergence herbicidal action; details: 1280 g/ha, rated visually after about 3 weeks vs untreated controls
How it was run: as §2

[27] = test system: Avena fatua; assay: Post-emergence herbicidal action; details: 1280 g/ha, rated visually after about 3 weeks vs untreated controls
How it was run: as §2

[28] = test system: Hordeum murinum; assay: Post-emergence herbicidal action; details: 1280 g/ha, rated visually after about 3 weeks vs untreated controls
How it was run: as §2

SMILES	herbicidal activity on Viola tricolor [1]	herbicidal activity on Veronica persica [2]	herbicidal activity on Abutilon theophrasti [3]	herbicidal activity on Amaranthus retroflexus [4]	herbicidal activity on Polygonum convolvulus [5]	herbicidal activity on Echinochloa crus-galli [6]	herbicidal activity on Setaria viridis [7]	herbicidal activity on Viola tricolor [8]	herbicidal activity on Stellaria media [9]	herbicidal activity on Veronica persica [10]	herbicidal activity on Alopecurus myosuroides [11]	herbicidal activity on Abutilon theophrasti [12]	herbicidal activity on Matricaria inodora [13]	herbicidal activity on Amaranthus retroflexus [14]	herbicidal activity on Polygonum convolvulus [15]	herbicidal activity on Echinochloa crus-galli [16]	herbicidal activity on Setaria viridis [17]	herbicidal activity on Stellaria media [18]	herbicidal activity on Matricaria inodora [19]	herbicidal activity on Pharbitis purpurea [20]	also measured
Cc1c(Sc2ccc(F)cc2)c(Oc2ncc(Cl)cn2)nn1C [Example I-060]	100%	100%	80%	100%	100%	80%	90%	100%	100%	90%	90%	80%	80%	100%	80%	90%	80%	–	–	–	–
Cc1c(Sc2ccc(F)cc2Cl)c(Oc2ncc(F)cn2)nn1C [Example I-065]	100%	–	80%	100%	100%	–	100%	100%	90%	–	–	80%	80%	100%	100%	–	–	100%	90%	100%	–
Cc1c(Sc2ccc(F)c(F)c2)c(Oc2ncc(F)cn2)nn1C [Example I-093]	100%	100%	100%	100%	100%	100%	100%	100%	100%	–	100%	90%	–	100%	100%	100%	100%	100%	100%	90%	herbicidal activity on Lolium rigidum [21]: 100%; herbicidal activity on Avena fatua [22]: 100%; herbicidal activity on Alopecurus myosuroides [23]: 100%; herbicidal activity on Hordeum murinum [24]: 100%; herbicidal activity on Pharbitis purpurea [25]: 80%; herbicidal activity on Lolium rigidum [26]: 100%; herbicidal activity on Avena fatua [27]: 100%; herbicidal activity on Hordeum murinum [28]: 90%
Cc1c(Sc2ccccc2)c(Oc2ncc(F)cn2)nn1C [Example I-133]	100%	–	100%	100%	100%	100%	100%	100%	100%	100%	100%	100%	–	100%	100%	100%	100%	100%	100%	100%	herbicidal activity on Lolium rigidum [21]: 100%; herbicidal activity on Avena fatua [22]: 100%; herbicidal activity on Alopecurus myosuroides [23]: 100%; herbicidal activity on Hordeum murinum [24]: 100%; herbicidal activity on Lolium rigidum [26]: 90%; herbicidal activity on Hordeum murinum [28]: 90%
